Patent publication US20100124537A1 (priority 2007, published 2010)
“Also recorded” adds a separate entry of the source. Read-outs that look alike come from different tables or passages of the source.

Columns and labels:
H. pylori, strain 119/95 [1] = assay: Mice infectious model with H. pylori, three intragastric doses of alpha-ketoglutaric acid salts, culture on GAB-CAMP agar (Example 2); type: in vivo, BALB/cA mice; details: for H. pylori colonies cultured from gastric mucosa: infected mice treated 3 consecutive days, 8 days after infection (Group III B); for effect on colonisation of gastric mucosa by H. pylori: three intragastric administrations on 3 consecutive days, started 8 days after last infective dose
Experimental: Eight days after the last challenge, sixteen mice were inoculated intragastrically through the tube for three successive days with 0.2 ml of 30 mM solution of salts of alpha-ketoglutaric acid (group III B). The remaining eight mice were sham-treated with 0.2 ml of 0.01 M PBS (group III) according to the procedure with group III.
Eight days after above treatment sixteen mice were inoculated with the tube for three consecutive days with salts of […] (0.2 ml, concentration 30 mM) (group IV B). The remaining eight mice were treated with 0.2 ml 0.01 M PBS (group IV).
Stomach and blood were samples were collected for the further studies.
(§1) DNA was also isolated to perform PCR with primers (5′-[…]-3′ and 5′-[…]-3′) recognizing 16S rDNA fragment in DNA of bacteria from Helicobacter genus. Afterwards PCR products in size 470 by were separated according to denaturating gradient gel electrophoresis technique (DGGE) and sequenced. […] Electrophoresis run at a temp of 60° C. in 125 V during 16 h.

[2] = tested on: bacteria from Helicobacter genus (16S rDNA); assay: 16S rDNA PCR, DGGE and sequencing of stomach mucosa homogenates (Example 2); type: in vivo, BALB/cA mice; details: for H. pylori DNA / sequences specific for H. pylori in PCR products: infected mice treated with alpha-ketoglutarate (Group III B), ethidium bromide staining
Experimental: as §1

gastrin = details: infected with H. pylori then alpha-ketoglutarate, versus control group (PBS); p<0.01
lactic acid bacteria = assay: Lactic acid bacteria isolated from scraped stomach mucosa (antral part); type: in vivo; details: animals tested, including mice infected with H. pylori and then inoculated with alpha-ketoglutarate
[3] = Morphology of stomach and small intestine mucosa in mice given alpha-ketoglutarate; type: in vivo; details: mice infected with H. pylori and following inoculation with alpha-ketoglutarate
H. pylori infection = assay: Volunteers with confirmed H. pylori infection taking the calcium salt with a milk drink (Example 4); type: in vivo, human; details: after two-week treatment
H. pylori, strain 119/95 [4] = tested on: H. pylori, strain 119/95
Experimental: Laboratory experimental animals: twenty eight 6 week-old BALB/cA (female) mice weighing 25±2 g (FIG. 1). […] Two weeks after the last challenge, seven mice were inoculated intragastrically for nine successive days by the same method with a solution of calcium or sodium salt of alpha-ketoglutaric acid (0.2 ml, at concentration 30 mM) (group I A). The remaining seven mice were sham-treated with 0.01 M phosphorate buffer—PBS (group I B) as animals from group I A.
Further fourteen mice from group II A and II B were treated with 0.2 ml PBS according to the scheme operating by the infection of the animals with H. pylori. Two weeks after the above treatment seven mice were continuously inoculated with PBS (0.2 ml) for three consecutive days. The remaining seven mice were treated with a solution of salts of alpha-ketoglutaric acid (0.2 ml, concentration 30 mM) (group II A).
On the 30th day of the experiment all mice were sacrificed using CO2. For further analyses blood and stomach samples from mice infected with H. pylori with or without the following inoculation with salts of alpha-ketoglutaric acid were collected. In this experiment the relationship between colonisation level of mouse stomach mucosa (n=28) by H. pylori and the mice treated intragastrically with salts of alpha-ketoglutaric acid were studied in accordance with the time regime as described above.
37° C., under microaerophilic conditions for 7-10 days. From the half of the antrum gastric mucosa was scraped off and mixed with 500 μl PBS sterilized. After homogenate balancing it was noticed that the amount of the scraped mucosa from the half of the antrum was generally between 40 μg a 50 μg. For calculation of number of H. pylori cells, a 100 μl of gastric mucosa homogenate was smeared onto GAB-CAMP agar plates and incubated at temp. 37° C., for 5-10 days, under microaerophilic conditions. Homogenized mucosa samples from each mouse were examined in triplicate. The results are presented as the mean value±SD. The presence of H. pylori was identified by colony morphology and urease-, oxidase- and catalase tests, as well as by morphological examination of cells by Gram-staining.

[5] = 2-3 years old rats with low initial blood AKG (below 0.1 ug/ml), feed additive; controls did not survive; cited from earlier work
[6] = PBS + AKG (Group IV B), non-infected mice
[7] = listed as salts of alpha-ketoglutaric acid
[8] = PBS + AKG (Group II A), non-infected mice

Question: With `O=C(O)CCC(=O)C(=O)O` [AKG, alpha-ketoglutarate] as the molecule, how does the “H. pylori cultivated: Number of mice infected/in group” value (H. pylori, strain 119/95 [1]; H. pylori + AKG (Group III B), 0.2 ml 30 mM intragastrically for 3 days starting 8 days after last challenge, day 20) read?
Answer: Its value is 0/16.

Question: What about the “H. pylori cultivated: Number of bacteria (cfu)/mouse” value (from here on “H. pylori cultivated … (cfu)/mouse”) (H. pylori, strain 119/95 [1]; H. pylori + AKG (Group III B), H. pylori + PBS gave 4.3 × 10^2 ± 5.0 × 10^1) of the same molecule?
Answer: The value was 0 cfu/mouse.

Question: What about the “H. pylori cultivated … (cfu)/mouse” value (H. pylori, strain 119/95 [1]; [6]) of the same molecule?
Answer: Its value is 0 cfu/mouse.

Question: And the “H. pylori cultivated: Number of mice infected/in group” value (H. pylori, strain 119/95 [1]; [6])?
Answer: Its value is 0/16.

Question: What about the “H. pylori colonies cultured from gastric mucosa” value (H. pylori, strain 119/95 [1]) of the same molecule?
Answer: Its value is “no H. pylori colonies were found”.

Question: What about the “H. pylori colonies cultured from gastric mucosa” value (H. pylori, strain 119/95 [1]; [7]) of the same molecule?
Answer: Its value is “not found; also recorded: no H. pylori colony was cultured”.

Question: What about the “effect on colonisation of gastric mucosa by H. pylori” value (H. pylori, strain 119/95 [1]) of the same molecule?
Answer: Its value is “completely stopped colonisation and fully eradicated H. pylori”.

Question: What about the “effect on colonisation of gastric mucosa by H. pylori” value (H. pylori, strain 119/95 [1]; [7]) of the same molecule?
Answer: The value was “total inhibitory effect on bacterial colonisation and fully eradication of H. pylori bacteria from gastric mucosa”.

Question: And the “16S rDNA PCR - Helicobacter genus: Number of mice with H. pylori DNA/in group” value ([2]; H. pylori + AKG (Group III B))?
Answer: The value was 0/16.

Question: And the “16S rDNA PCR - Helicobacter genus: Number of mice with H. pylori DNA/in group” value [2, 6]?
Answer: The value was 0/16.

Question: And the “H. pylori DNA / sequences specific for H. pylori in PCR products” value [2]?
Answer: Its value is “no H. pylori DNA was found”.

Question: And the “H. pylori DNA / sequences specific for H. pylori in PCR products” value [2, 7]?
Answer: The value was “not found”.

Question: And the “differences in number of CCK-producing cells in the small intestine” value (cholecystokinin (CCK); H. pylori + alpha-ketoglutarate versus alpha-ketoglutarate only, p=0.25)?
Answer: The value was “no significant differences”.

Question: And the “decrease in number of CCK producing cells in the small intestine” value (cholecystokinin (CCK); animals treated with alpha-ketoglutarate versus non-infected mice given only PBS, tendency, p=0.1)?
Answer: Its value is 30%.

Question: And the “reduction in the number of gastrin-producing cells in the pyloric region of the stomach glands” value (gastrin)?
Answer: Its value is 17%.

Question: What about the “changes in the amount of lactic acid bacteria isolated from scraped stomach mucosa (antral part)” value (lactic acid bacteria) of the same molecule?
Answer: The value was “no changes”.

Question: And the “morphological changes in thickening of mucosa in stomach and small intestine, villus width and crypt depth” value [3]?
Answer: Its value is “no morphological changes”.

Question: What about the “time for which lack of dyspepsia symptoms was maintained after end of administration” value (H. pylori infection) of the same molecule?
Answer: The value was “one”.

Question: And the “H. pylori cultivated: Number of mice infected/in group” value (H. pylori, strain 119/95 [4]; H. pylori + AKG (Group I A), 0.2 ml 30 mM intragastrically for 9 days starting 2 weeks after last challenge, day 30)?
Answer: The value was 7/7.

Question: And the “H. pylori cultivated … (cfu)/mouse” value (H. pylori, strain 119/95 [4]; H. pylori + AKG (Group I A), mean ± SD, H. pylori + PBS gave 7.8 × 10^2 ± 5.0 × 10^1)?
Answer: The value was 3.8 × 10^2 ± 5.0 × 10^1 cfu/mouse.

Question: And the “H. pylori cultivated … (cfu)/mouse” value (H. pylori, strain 119/95 [4]; [8])?
Answer: Its value is 0 cfu/mouse.

Question: And the “H. pylori cultivated: Number of mice infected/in group” value (H. pylori, strain 119/95 [4]; [8])?
Answer: Its value is 0/7.

Question: And the “number of colonies (mean±SD) isolated from antral/pyloric part of gastric mucosa” value (H. pylori, strain 119/95 [4]; infected mice treated 9 days (Group I A), infected only 7.8×10^2±5.0×10^1)?
Answer: The value was 3.8×10^2±5.0×10^1.

Question: What about the “reduction of degree of gastric mucosa colonisation by H. pylori” value (H. pylori, strain 119/95 [4]; nine intragastric administrations on 9 consecutive days, started 14 days after last infective dose, versus mice infected only) of the same molecule?
Answer: The value was 49%.

Question: Which “survival of the experiment” value [5] does the source give for `O.O.O=C([O-])CCC(=O)C(=O)[O-].[Na+].[Na+]` [Na2AKG*2H2O] here?
Answer: The value was “survived the experiment”.
